This is an account of results in PMC3608651, “A Broad Profile of Co-Dominant Epitopes Shapes the Peripheral Mycobacterium tuberculosis Specific CD8+ T-Cell Immune Response in South African Patients with Active Tuberculosis” (PLoS ONE, 2013).

Where two headings read alike, the source gives them in different places.

Holding throughout (type): binding
Assay [1] addresses T1, HLA-A*24:02 (Homo sapiens, UniProt P04439, D101N/D140Y/D185E/E176V/E190D/F33S/G103R/G107R/I119L/I121M/I306V/K335N/L105A/L180Q/L300P/N151K/N90K/Q86E/Q94H/R106L/R138H/R89G/T104I/T345S/V100E/W191G/Y123F). Particulars: duplicated experiments, positive binder >40%.
Assay [2] has as its target T1, HLA-A*24:02.
Assay [3] has as its target T1, HLA-A*24:02. Particulars: time points 0-8 h.
Assay [4] deals with T2, HLA-A*30:02 (Homo sapiens, UniProt P04439, D101N/D140H/D185E/E176R/F33S/G80R/H175R/K168Q/Q94H/R138E/R41S/V100E). Conditions: duplicated experiments, positive binder >40%.
Assay [5] deals with HLA-B*07:02 (Homo sapiens, UniProt P01889). Particulars: percent relative the binding of positive control peptide […]; duplicated experiments; positive binder >40%.
For assay [6], the target named is T3, HLA-B*58:01 (Homo sapiens, UniProt P01889, A329T/C349S/D201E/D98Y/E176V/E187L/E204Q/E69T/G107R/I218V/I90N/K202T/L105A/L119I/N104I/N87E/Q89R/Q94S/R106L/R155S/R180L/R86G/S101N/S121R/S35A/S48A/T118I/V127L/V306I/V36M/Y140S/Y91M). Particulars: duplicated experiments, positive binder >40%.
Assay [7] concerns the target HLA-A*30:01 (Homo sapiens, UniProt P04439, D140H/D185E/E176W/F33S/G80R/H175R/K168Q/R138E/R41S). Conditions: duplicated experiments, positive binder >40%.
Assay [8] has as its target T4, HLA-A*02:01 (Homo sapiens, UniProt P04439, D140Y/D185E/D98H/E176V/E277Q/G131W/G231S/I119V/I121R/I166T/I218V/L300P/L318F/N151K/N90K/P208A/P217A/Q86G/Q94H/R138H/R169H/T345S). Conditions: plate-bound monomer 0.5 µg/ml, duplicated experiments, positive binder >40%.
The target of assay [9] is T5, HLA-A*68:01 (Homo sapiens, UniProt P04439, A269V/D185E/E176V/E277Q/E87N/F33Y/G231S/I121M/I166T/I218V/L180W/L300P/L318F/N151K/P208A/P217A/Q86R/R169H/T345S). Conditions: duplicated experiments, positive binder >40%.
For assay [10], the target named is HLA-C*07:01 (Homo sapiens, UniProt P10321, K90N/S123Y). Conditions: duplicated experiments, positive binder >40%.
For assay [11], the target named is T2, HLA-A*30:02. Conditions: time points 0-8 h.
Assay [12] addresses T2, HLA-A*30:02.
For assay [13], the target named is T4, HLA-A*02:01. Particulars: time points 0-8 h; time when 50% of peptide has dissociated.
For assay [14], the target named is T3, HLA-B*58:01.
The target in assay [15] is T3, HLA-B*58:01. Particulars: time points 0-8 h.
Assay [16] concerns the target T5, HLA-A*68:01.
Assay [17] concerns the target T4, HLA-A*02:01. Particulars: […]; peptide quantity for 50% binding saturation.
Assay [18] addresses T5, HLA-A*68:01. Particulars: time points 0-8 h.
[19] abbreviates: percent relative the binding of positive control peptide […].
The mark [20] stands for this setting: percent relative the binding of positive control peptide IAMESIVIW
The mark [21] stands for this setting: percent relative the binding of positive control peptide RYLKDQQLL
Setting [22] is: percent relative the binding of positive control peptide KTKDIVNGL
Where [23] appears, read: peptide titrated 10−4 to 10−9 M.
Setting [24] is: percent relative the binding of positive control peptide FLPSDFFPSV
Where [25] appears, read: percent relative the binding of positive control peptide KTGGPIYKR
[26] abbreviates: percent relative the binding of positive control peptide KIQNFRVYY
The mark [27] stands for this setting: percent relative the binding of positive control peptide KYFDEHYEY

In the case of MYNYPTMLG [Rv0288_5–13m1], the “Bind A*24:02” value in assay [1] (setting [19]) was determined as 47%. In addition, in assay [2], the “Aff A*24:02 (ED50)” value came out at 2e-07 M. Besides, the “O-rate A*24:02 (t1/2)” value in assay [3] was 30 min. For the same substance, the “Bind A*30:02” value in [4] (setting [19]) stood at 23%.

Consider GYAGTLQNL [Rv0288_20–28m1], for which the “Bind A*24:02” value in [1] (setting [19]) amounted to 68%. Moreover, the “Aff A*24:02 (ED50)” value in assay [2] turned out to be 1e-07 M. Also, the “O-rate A*24:02 (t1/2)” value in [3] was found to be 18 min.

As for SGSEAYQGV [Rv3875_46–54], the “Bind B*07:02” value in assay [5] is reported as 9%. Besides, the “Bind B*58:01” value in [6] (setting [20]) came to 2%. Further, in assay [1] (setting [21]), the “Bind A*24:02” value is given as 54%. For the same substance, the “Bind A*30:01” value in assay [7] (setting [22]) is recorded as 0%. The “Aff A*24:02 (ED50)” value in assay [2] (setting [23]) amounted to 9e-09 M. The “O-rate A*24:02 (t1/2)” value in assay [3] is 30 min. For the same substance, the “Bind A*02:01” value in assay [8] (setting [24]) is recorded as 22%. For the same substance, the “Bind A*68:01” value in assay [9] (setting [25]) turned out to be 0%. Besides, in assay [4] (setting [26]), the “Bind A*30:02” value was determined as 0%. Besides, the “Bind C*07:01” value in assay [10] (setting [27]) is 24%.

With MYNYPAMLD [Rv0288_5–13m2], the “O-rate A*30:02 (t1/2)” value in assay [11] amounted to 42 min. Moreover, in assay [1] (setting [19]), the “Bind A*24:02” value is given as 60%. The “Aff A*24:02 (ED50)” value in assay [2] was 3e-08 M. Besides, the “O-rate A*24:02 (t1/2)” value in [3] amounted to 24 min. In [4] (setting [19]), the “Bind A*30:02” value was determined as 59%. Moreover, the “Aff A*30:02 (ED50)” value in [12] was 2e-06 M.

Turning to YWGAQLNAM, in [5], the “Bind B*07:02” value is 12%. For the same substance, in assay [6] (setting [19]), the “Bind B*58:01” value came to 0%. In [1] (setting [19]), the “Bind A*24:02” value is reported as 113%. The “Bind A*30:01” value in assay [7] (setting [19]) stood at 0%. Further, the “Aff A*24:02 (ED50)” value in [2] came out at 8e-09 M. Also, in assay [3], the “O-rate A*24:02 (t1/2)” value was 30 min. Further, the “Bind A*02:01” value in assay [8] (setting [19]) is given as 11%. In addition, the “Bind A*68:01” value in assay [9] (setting [19]) is recorded as 16%. In addition, the “Bind A*30:02” value in assay [4] (setting [19]) is on record as 63%. Besides, in assay [10] (setting [19]), the “Bind C*07:01” value amounted to 0%.

QWLSANRAV: the “O-rate A*30:02 (t1/2)” value in [11] was determined as 72 min. Moreover, the “Bind B*07:02” value in assay [5] is 25%. In addition, in assay [6] (setting [19]), the “Bind B*58:01” value is reported as 0%. For the same substance, the “Bind A*24:02” value in assay [1] (setting [19]) stood at 110%. The “Bind A*30:01” value in assay [7] (setting [19]) is reported as 39%. The “Aff A*24:02 (ED50)” value in assay [2] worked out at 2e-06 M. In assay [3], the “O-rate A*24:02 (t1/2)” value came out at 24 min. For the same substance, the “Bind A*02:01” value in [8] (setting [19]) came out at 21%. Besides, in assay [9] (setting [19]), the “Bind A*68:01” value is listed as 13%. The “Bind A*30:02” value in assay [4] (setting [19]) was determined as 120%. Moreover, the “Bind C*07:01” value in assay [10] (setting [19]) stood at 11%. Moreover, the “Aff A*30:02 (ED50)” value in assay [12] worked out at 7E -08 M.

With MYNYPTMLD [Rv0288_5–13m3], the “Bind A*24:02” value in [1] (setting [19]) is 76%. In [2], the “Aff A*24:02 (ED50)” value was determined as 2e-08 M. In addition, the “O-rate A*24:02 (t1/2)” value in [3] was 30 min. The “Bind A*30:02” value in assay [4] (setting [19]) came to 0%.

As for TYKW ETFLT, the “Bind B*07:02” value in assay [5] is on record as 3%. Also, the “Bind B*58:01” value in [6] (setting [19]) is reported as 0%. Moreover, the “Bind A*24:02” value in assay [1] (setting [19]) was determined as 118%. In addition, the “Bind A*30:01” value in assay [7] (setting [19]) is reported as 0%. For the same substance, the “Aff A*24:02 (ED50)” value in [2] worked out at 2e-06 M. In addition, the “O-rate A*24:02 (t1/2)” value in assay [3] was 30 min. The “Bind A*02:01” value in [8] (setting [19]) came to 36%. Moreover, in assay [9] (setting [19]), the “Bind A*68:01” value was found to be 4%. Moreover, the “Bind A*30:02” value in assay [4] (setting [19]) worked out at 13%. The “Bind C*07:01” value in assay [10] (setting [19]) is on record as 0%.

Take GT HSWEYWG: in [11], the “O-rate A*30:02 (t1/2)” value is 132 min. The “Bind B*07:02” value in assay [5] is reported as 3%. Also, in assay [13], the “O-rate A*02:01 (t1/2)” value was found to be 18 min. Moreover, the “Bind B*58:01” value in assay [6] (setting [19]) is 58%. In addition, the “Aff B*58:01 (ED50)” value in [14] stood at 300 nM. In assay [1] (setting [19]), the “Bind A*24:02” value amounted to 2%. Besides, in assay [15], the “O-rate B*58:01 (t1/2)” value was 174 min. The “Bind A*30:01” value in assay [7] (setting [19]) was determined as 0%. Further, the “Aff A*68:01 (ED50)” value in assay [16] was found to be 1E -05 M. In addition, the “Bind A*02:01” value in assay [8] (setting [19]) was found to be 43%. Also, in [9] (setting [19]), the “Bind A*68:01” value is reported as 71%. Also, the “Bind A*30:02” value in [4] (setting [19]) was 79%. Also, the “Aff A*02:01 (ED50)” value in [17] was determined as 2E -06 M. For the same substance, the “Bind C*07:01” value in [10] (setting [19]) is listed as 25%. In addition, the “O-rate A*68:01 (t1/2)” value in [18] was 12 min. The “Aff A*30:02 (ED50)” value in [12] worked out at 3e-05 M.

In the case of AYQGVQQKW [Rv3875_50–58], in [5], the “Bind B*07:02” value worked out at 10%. Moreover, the “Bind B*58:01” value in [6] (setting [20]) is 35%. In addition, the “Bind A*24:02” value in assay [1] (setting [21]) is 60%. In addition, the “Bind A*30:01” value in assay [7] (setting [22]) is recorded as 0%. The “Aff A*24:02 (ED50)” value in assay [2] (setting [23]) worked out at 1e-08 M. Also, the “O-rate A*24:02 (t1/2)” value in [3] worked out at 24 min. Besides, in [8] (setting [24]), the “Bind A*02:01” value is 0%. The “Bind A*68:01” value in [9] (setting [25]) worked out at 6%. In assay [4] (setting [26]), the “Bind A*30:02” value is reported as 33%. In addition, in [10] (setting [27]), the “Bind C*07:01” value is 0%.

For GWDINTPAF, the “Bind B*07:02” value in assay [5] is recorded as 22%. The “Bind B*58:01” value in [6] (setting [19]) is on record as 0%. The “Bind A*24:02” value in [1] (setting [19]) is 146%. The “Bind A*30:01” value in assay [7] (setting [19]) was determined as 11%. In addition, the “Aff A*24:02 (ED50)” value in [2] is recorded as 1E -07 M. Moreover, the “O-rate A*24:02 (t1/2)” value in assay [3] turned out to be 66 min. In addition, in assay [8] (setting [19]), the “Bind A*02:01” value is recorded as 0%. For the same substance, in assay [9] (setting [19]), the “Bind A*68:01” value is 5%. The “Bind A*30:02” value in assay [4] (setting [19]) is given as 0%. The “Bind C*07:01” value in assay [10] (setting [19]) is 10%.
